For 40 compounds, EC50 and IC50 results are on record in patent US20230203044A1, “PYRAZOLO[1,5-D][1,2,4]TRIAZINE-5(4H)-ACETAMIDES AS INHIBITORS OF THE NLRP3 INFLAMMASOME” (JANSSEN PHARMACEUTICA NV, priority 2020, published 2023).

Assay [1] concerns TNF. Kind of assay: PBMC assay: TNF cytokine levels in LPS-stimulated human PBMCs (MSD). The settings on record: 100 ng/ml LPS for 6 hrs, TNF in supernatant via MSD. It counts as cell-based. As to the method: (§1) Peripheral venous blood was collected from healthy individuals and human peripheral blood mononuclear cells (PBMCs) were isolated from blood by Ficoll-Histopaque (Sigma-Aldrich, A0561) density gradient centrifugation. After isolation, PBMCs were stored in liquid nitrogen for later use. Upon thawing, PBMC cell viability was determined in growth medium (RPMI media supplemented with 10% fetal bovine serum, 1% Pen-Strep and 1% L-glutamine). Compounds were spotted in a 1:3 serial dilution in DMSO and diluted to the final concentration in 30 μl medium in 96 well plates (Falcon, 353072). PBMCs were added at a density of 7.5×10^4 cells per well and incubated for 30 min in a 5% CO2 incubator at 37° C. LPS stimulation was performed by addition of 100 ng/ml LPS (final concentration, Invivogen, tlrl-smlps) for 6 hrs followed by collection of cellular supernatant and the analysis of IL-1β (μM) and TNF cytokines levels (μM) via MSD technology according to manufacturers' guidelines (MSD, K151A0H).
The IC50 values (for IL-1β) and EC50 values (TNF) were obtained on compounds of the invention/examples, and are depicted in the following table: […]

The test system of assay [2] is NLRP3 inflammasome. Kind of assay: PBMC assay: IL-1β in LPS-stimulated human PBMCs (MSD). It counts as cell-based. The settings on record: human PBMCs, 100 ng/ml LPS for 6 hrs, IL-1β in supernatant via MSD, read-out: IL1β IC50. As to the method: The activity of a compound according to the present invention can be assessed by in vitro methods.
as §1, with “Compounds were spotted in a 1:3 serial dilution in DMSO and diluted to the final concentration in 30 μl medium in 96 well plates (Falcon, 353072).” left out

As for `CC(C)c1cc2c(=O)n(CC(=O)N[C@H]3C[C@@](C)(O)C3)nc(N(C)C)n2n1` [Final Cpd 150], the concentration giving a half-maximal response (EC50) in assay [1] is greater than 10 µM. The IC50 in assay [2] amounted to 360 nM. The corresponding values for `COc1ccncc1NC(=O)Cn1nc(C(C)C)n2nc(C3CC3)cc2c1=O` [Final Cpd 125] are greater than 10 µM and 9370 nM. For the compound `CCOC(C)c1cc2c(=O)n(CC(=O)Nc3ccncn3)nc(C(C)C)n2n1` (stereo not drawn) [Final Cpd 180, 2-(2-(1-ethoxyethyl)-74 sopropyl-4-oxopyrazolo[1,5-d][1,2,4]triazin-5(4H)-yl)-N-(pyrimidin-4-yl)acetamide], the concentration giving a half-maximal response (EC50) in assay [1] was greater than 10 µM. Besides, in assay [2], the IC50 was greater than 10000 nM. The corresponding values for `CC(C)c1nn(CC(=O)Nc2ccc3nnc(Cl)n3n2)c(=O)c2cc(C3CC3)nn12` [Final Cpd 170] are greater than 10 µM and 550 nM. `CC(C)c1cc2c(=O)n(CC(=O)N[C@H]3C[C@@](C)(O)C3)nc(C(C)C)n2n1` [Final Cpd 142] came in with an EC50 in assay [1] greater than 10 µM. The concentration for half-maximal inhibition (IC50) in assay [2] is 140 nM. Taken in the same sequence, the figures for `CC(C)c1nn2c(N(C)C)nn(CC(=O)Nc3ccncn3)c(=O)c2c1Br` [Final Cpd 151] were greater than 10 µM and greater than 10000 nM.

In turn, `CC(C)c1nn(CC(=O)Nc2cc(C(F)F)[nH]n2)c(=O)c2cc(C3CC3)nn12` [Final Cpd 85] returned an EC50 in assay [1] greater than 10 µM. The IC50 in assay [2] amounted to 340 nM. The corresponding values for `CC(C)c1cc2c(=O)n(CC(=O)Nc3ccc4nncn4c3)nc(N(C)C)n2n1` [Final Cpd 148] are greater than 10 µM and 320 nM.

As to `CC(C)c1nn(CC(=O)Nc2ccc3nncn3n2)c(=O)c2cc(C(C)(F)F)nn12` [Final Cpd 176], in assay [1], the EC50 was greater than 10 µM. The concentration for half-maximal inhibition (IC50) in assay [2] was 82 nM. The corresponding values for `CCc1nn(CC(=O)Nc2ccncc2)c(=O)c2ccnn12` [Final Cpd 79] are greater than 10 µM and greater than 10000 nM.

`CC(C)c1nn(CC(=O)Nc2ccnc(N(C)C)c2)c(=O)c2cc(C3CC3)nn12` [Final Cpd 123] displayed an EC50 in assay [1] greater than 10 µM. Moreover, the IC50 in assay [2] was 1040 nM. The corresponding values for `CC(C)c1nn(CC(=O)Nc2ccc(C3CC3)nn2)c(=O)c2cc(C3CC3)nn12` [Final Cpd 86] are greater than 10 µM and greater than 10000 nM.

Take `CC(C)c1nn(CC(=O)Nc2ccc(=O)n(CC3CC3)c2)c(=O)c2cc(C3CC3)nn12` [Final Cpd 35]: the concentration giving a half-maximal response (EC50) in assay [1] is greater than 10 µM. Further, the IC50 in assay [2] stood at 380 nM. The corresponding values for `Cc1nn(CC(=O)N[C@@H]2CCN(c3nc4cccnc4o3)C2)c(=O)c2cc(C3CC3)nn12` [Final Cpd 56] are greater than 10 µM and 6970 nM. Compound `CCNc1cc2c(=O)n(CC(=O)N[C@H]3C[C@@](C)(O)C3)nc(C(C)C)n2n1` [Final Cpd 73] came in with a concentration giving a half-maximal response (EC50) in assay [1] greater than 10 µM. Moreover, the IC50 in assay [2] turned out to be 110 nM.

On to `CC[C@]1(O)C[C@@H](NC(=O)Cn2nc(C(C)C)n3nc(C4CC4)cc3c2=O)C1` [Final Cpd 192, 2-(2-cyclopropyl-7-isopropyl-4-oxopyrazolo[1,5-d][1,2,4]triazin-5(4H)-yl)-N-((1r,3s)-3-ethyl-3-hydroxycyclobutyl)acetamide], for which, in assay [1], the EC50 was greater than 10 µM. The 50% inhibitory concentration (IC50) in assay [2] amounted to 610 nM. Taken in the same sequence, the figures for `CC(C)c1nn(CC(=O)N[C@H]2C[C@@](C)(O)C2)c(=O)c2c(N)c(C3CC3)nn12` [Final Cpd 181, 2-(3-amino-2-cyclopropyl-7-isopropyl-4-oxopyrazolo[1,5-d][1,2,4]triazin-5(4H)-yl)-N-((ls,3s)-3-hydroxy-3-methylcyclobutyl)acetamide] were greater than 10 µM and 480 nM.

As to `Cc1nn(CC(=O)N[C@]23CC[C@H](CC2)C3)c(=O)c2cc(C3CC3)nn12` [Final Cpd 64], the EC50 in assay [1] is greater than 10 µM. Moreover, the IC50 in assay [2] was found to be 5500 nM. The corresponding values for `Cc1nn(CC(=O)NC2CC(c3ccc(O)cc3)C2)c(=O)c2cc(C3CC3)nn12` (stereo not drawn) [Final Cpd 66] are greater than 10 µM and 3550 nM. Taken in the same sequence, the figures for `Cc1nn(CC(=O)N[C@H]2C[C@H](N(C)Cc3ccccc3)C2)c(=O)c2cc(C3CC3)nn12` [Final Cpd 52] were greater than 10 µM and 2310 nM. The corresponding values for `CC(C)c1nn(CC(=O)NC2CCC(=O)N(CC3CC3)C2)c(=O)c2cc(C3CC3)nn12` (stereo not drawn) [Final Cpd 25] are greater than 10 µM and 2340 nM. Turning to `Cc1cnccc1NC(=O)Cn1nc(C(C)C)n2nc(C3CC3)cc2c1=O` [Final Cpd 134], in assay [1], the 50% effective concentration (EC50) was greater than 10 µM. Further, in assay [2], the IC50 came to 230 nM. Taken in the same sequence, the figures for `CC(C)c1nn(CC(=O)Nc2ccc3nnc(C(F)F)n3c2)c(=O)c2cc(C3CC3)nn12` [Final Cpd 92] were greater than 10 µM and 920 nM.

Consider `CC(C)c1nn(CC(=O)Nc2cnccc2Cl)c(=O)c2cc(C3CC3)nn12` [Final Cpd 135], for which the EC50 in assay [1] is greater than 10 µM. In assay [2], the 50% inhibitory concentration (IC50) was 6930 nM. `CC(C)c1nn(CC(=O)Nc2ccc3nncn3c2)c(=O)c2cc(NCC(F)(F)F)nn12` [Final Cpd 42] yielded a half-maximal effective concentration (EC50) in assay [1] greater than 10 µM. Moreover, the IC50 in assay [2] came out at 220 nM. Taken in the same sequence, the figures for `CC(C)c1nn(CC(=O)Nc2ccc(Cl)nc2)c(=O)c2cc(C3CC3)nn12` [Final Cpd 110] were greater than 10 µM and 590 nM. The corresponding values for `CC(C)c1nn(CC(=O)Nc2ccnc(C(F)F)c2)c(=O)c2cc(C3CC3)nn12` [Final Cpd 130] are greater than 10 µM and 530 nM. The compound `CC(C)c1cc2c(=O)n(CC(=O)Nc3ccc4nncn4c3)nc(C(C)C)n2n1` [Final Cpd 143] returned an EC50 in assay [1] greater than 10 µM. Besides, the IC50 in assay [2] amounted to 100 nM. Taken in the same sequence, the figures for `CCNc1cc2c(=O)n(CC(=O)Nc3ccncn3)nc(C(C)C)n2n1` [Final Cpd 72] were greater than 10 µM and 54 nM. Taken in the same sequence, the figures for `Cc1nn(CC(=O)N[C@]2(Cc3ccccc3)C[C@H](O)C2)c(=O)c2cc(C3CC3)nn12` [Final Cpd 50] were greater than 10 µM and greater than 10000 nM. In turn, `CCc1cc2c(=O)n(CC(=O)Nc3ccnnc3)nc(C(C)C)n2n1` [Final Cpd 141] registered an EC50 in assay [1] greater than 10 µM. In addition, in assay [2], the IC50 worked out at 420 nM. The corresponding values for `CC(C)c1nn(CC(=O)N[C@H]2CNCC[C@H]2O)c(=O)c2cc(C3CC3)nn12` [Final Cpd 188] are greater than 10 µM and 740 nM. The corresponding values for `COc1ccc(-c2nn(CC(=O)N[C@H]3C[C@@](C)(O)C3)c(=O)c3cc(C4CC4)nn23)cc1` [Final Cpd 199, 2-(2-cyclopropyl-7-(4-methoxyphenyl)-4-oxopyrazolo [1,5-d] [1,2,4]triazin-5(4H)-yl)-N-((1 s,3 s)-3-hydroxy-3-methylcyclobutyl)acetamide] are greater than 10 µM and greater than 10000 nM. Taken in the same sequence, the figures for `CCc1nn(CC(=O)Nc2ccncn2)c(=O)c2cc(I)nn12` [Final Cpd 4, 2-(7-ethyl-2-iodo-4-oxo-pyrazolo[1,5-d][1,2,4]triazin-5-yl)-N-pyrimidin-4-yl-acetamide] were greater than 10 µM and 290 nM. For `COCCCc1nn(CC(=O)N[C@H]2C[C@@](C)(O)C2)c(=O)c2cc(C3CC3)nn12` [Final Cpd 194, 2-(2-cyclopropyl-7-(3-methoxypropyl)-4-oxopyrazolo[1,5-d][1,2,4]triazin-5(4H)-yl)-N-((ls,3s)-3-hydroxy-3-methylcyclobutyl)acetamide], the EC50 in assay [1] was greater than 10 µM. Also, in assay [2], the half-maximal inhibitory concentration (IC50) is greater than 10000 nM. For the compound `Cc1nn(CC(=O)NC2(CO)CCCC2)c(=O)c2cc(C3CC3)nn12` [Final Cpd 57], in assay [1], the EC50 is greater than 10 µM. Further, the half-maximal inhibitory concentration (IC50) in assay [2] was greater than 10000 nM.

`COc1nn(CC(=O)N[C@H]2C[C@@](C)(O)C2)c(=O)c2cc(C3CC3)nn12` [Final Cpd 139]: the EC50 in assay [1] is greater than 10 µM. Further, in assay [2], the IC50 is 6560 nM. The corresponding values for `CC(C)c1nn(CC(=O)N[C@@H]2CCC(=O)N(C)C2)c(=O)c2cc(C3CC3)nn12` [Final Cpd 30] are greater than 10 µM and 1430 nM. Consider `CCOC(=O)C1CC(Cc2cc3c(=O)n(CC(=O)Nc4ccnnc4)nc(C(C)C)n3n2)C1` (stereo not drawn) [Final Cpd 177, ethyl 3-((7-isopropyl-4-oxo-5-(2-oxo-2-(pyridazin-4-ylamino)ethyl)-4,5-dihydropyrazolo[1,5-d][1,2,4]triazin-2-yl)methyl)cyclobutane-1-carboxylate], for which the IC50 in assay [2] is 2060 nM. `CC(C)c1nn(CC(=O)N[C@H]2CN(C3CCC3)CC[C@H]2O)c(=O)c2cc(C3CC3)nn12` [Final Cpd 191, N-((3 S,4R)-1-cyclobutyl-4-hydroxypiperidin-3-yl)-2-(2-cyclopropyl-7-isopropyl-4-oxopyrazolo[1,5-d][1,2,4]triazin-5(4H)-yl)acetamide] showed an EC50 in assay [1] greater than 10 µM.

A word on the EC50: it is the concentration giving half of the maximal effect. A lower EC50 goes with an effect from little substance. The IC50 is the concentration that gives 50% inhibition.
